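How tested: cells in 96-well plates exposed to compound for 48 hours at five concentrations. GI50 marks 50% less growth. TGI marks complete inhibition of growth.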
What was measured:
Assay in all cases: NCI-60 cell line screen, 48 h
PC-3 prostate = system: PC-3 prostate
A549 NSCLC = system: A549 NSCLC
COLO 205 colon = system: COLO 205 colon
BT-549 breast = system: BT-549 breast
MDA-MB-468 breast = system: MDA-MB-468 breast
UO-31 renal = system: UO-31 renal
RPMI-8226 leukemia = system: RPMI-8226 leukemia
HOP-62 NSCLC = system: HOP-62 NSCLC
HS 578T breast = system: HS 578T breast
SF-268 CNS = system: SF-268 CNS
MDA-MB-435 = system: MDA-MB-435
MALME-3M melanoma = system: MALME-3M melanoma
HOP-92 NSCLC = system: HOP-92 NSCLC
SN12C renal = system: SN12C renal
NCI-H226 lung = system: NCI-H226 lung
SK-MEL-2 melanoma = system: SK-MEL-2 melanoma
NCI-H460 lung = system: NCI-H460 lung
T-47D breast = system: T-47D breast
A498 renal = system: A498 renal
DU-145 prostate = system: DU-145 prostate
MCF7 breast = system: MCF7 breast
MOLT-4 leukemia = system: MOLT-4 leukemia
SNB-19 CNS = system: SNB-19 CNS
SR leukemia = system: SR leukemia
KM12 colon = system: KM12 colon
EKVX NSCLC = system: EKVX NSCLC
CAKI-1 renal = system: CAKI-1 renal
HCC-2998 colon = system: HCC-2998 colon
TK-10 renal = system: TK-10 renal
OVCAR-4 ovarian = system: OVCAR-4 ovarian
NCI-H522 lung = system: NCI-H522 lung
HL-60(TB) leukemia = system: HL-60(TB) leukemia
UACC-62 melanoma = system: UACC-62 melanoma
HCT-15 colon = system: HCT-15 colon
ACHN renal = system: ACHN renal
RXF 393 renal = system: RXF 393 renal
SK-MEL-5 melanoma = system: SK-MEL-5 melanoma
M14 melanoma = system: M14 melanoma
NCI-H23 lung = system: NCI-H23 lung
K-562 leukemia = system: K-562 leukemia
HCT-116 colon = system: HCT-116 colon
SNB-75 CNS = system: SNB-75 CNS
NCI/ADR-RES ovarian = system: NCI/ADR-RES ovarian
OVCAR-8 ovarian = system: OVCAR-8 ovarian
SK-MEL-28 melanoma = system: SK-MEL-28 melanoma
CCRF-CEM leukemia = system: CCRF-CEM leukemia
UACC-257 melanoma = system: UACC-257 melanoma
786-0 renal = system: 786-0 renal
U251 CNS = system: U251 CNS
HT29 colon = system: HT29 colon
MDA-MB-231 breast = system: MDA-MB-231 breast
SW-620 colon = system: SW-620 colon
IGROV1 ovarian = system: IGROV1 ovarian
OVCAR-5 ovarian = system: OVCAR-5 ovarian
LOX IMVI melanoma = system: LOX IMVI melanoma
SF-539 CNS = system: SF-539 CNS
OVCAR-3 ovarian = system: OVCAR-3 ovarian
SF-295 CNS = system: SF-295 CNS
SK-OV-3 ovarian = system: SK-OV-3 ovarian

With Cc1cc(N=C2NC(=O)/C(=C/c3cc(C(C)(C)C)c(O)c(C(C)(C)C)c3)S2)n[nH]1 the GI50 (PC-3 prostate) was 1.78 µM, the TGI (PC-3 prostate) was 22.3 µM and the GI50 (A549 NSCLC) was 2.61 µM. For the same molecule, the TGI (A549 NSCLC) was 18.3 µM, the GI50 (COLO 205 colon) was 4.41 µM and the TGI (COLO 205 colon) was 18.9 µM. For the same molecule, the GI50 (BT-549 breast) was 2.63 µM, the TGI (BT-549 breast) was 12.2 µM and the GI50 (MDA-MB-468 breast) was 2.55 µM. It also gave a TGI (MDA-MB-468 breast) of 13.2 µM, a GI50 (UO-31 renal) of 2.1 µM and a TGI (UO-31 renal) of 14.5 µM. The GI50 (RPMI-8226 leukemia) was 2.43 µM, the TGI (RPMI-8226 leukemia) was 13.3 µM and the GI50 (HOP-62 NSCLC) was 3.67 µM. The TGI (HOP-62 NSCLC) was 21.1 µM, the GI50 (HS 578T breast) was 1.98 µM and the TGI (HS 578T breast) was 13.2 µM. The GI50 (SF-268 CNS) was 4.69 µM, the TGI (SF-268 CNS) was 24.2 µM and the GI50 (MDA-MB-435) was 4.04 µM. The TGI (MDA-MB-435) was 16.4 µM, the GI50 (MALME-3M melanoma) was 2.7 µM and the TGI (MALME-3M melanoma) was 14.2 µM. For the same molecule, the GI50 (HOP-92 NSCLC) was 1.87 µM, the TGI (HOP-92 NSCLC) was 14.7 µM and the GI50 (SN12C renal) was 2.7 µM. For the same molecule, the TGI (SN12C renal) was 14.8 µM, the GI50 (NCI-H226 lung) was 1.89 µM and the TGI (NCI-H226 lung) was 15.1 µM. For the same molecule, the GI50 (SK-MEL-2 melanoma) was 4.35 µM, the TGI (SK-MEL-2 melanoma) was 18.8 µM and the GI50 (NCI-H460 lung) was 0.755 µM. It also gave a TGI (NCI-H460 lung) of 10.5 µM, a GI50 (T-47D breast) of 2.41 µM and a TGI (T-47D breast) of 24.9 µM. The GI50 (A498 renal) was 1.49 µM, the TGI (A498 renal) was 11.1 µM and the GI50 (DU-145 prostate) was 4.87 µM. For the same molecule, the TGI (DU-145 prostate) was > 100 µM, the GI50 (MCF7 breast) was 1.93 µM and the TGI (MCF7 breast) was 12.2 µM. The GI50 (MOLT-4 leukemia) was 2.39 µM, the TGI (MOLT-4 leukemia) was 14 µM and the GI50 (SNB-19 CNS) was 3.26 µM. It also gave a TGI (SNB-19 CNS) of 15.8 µM, a GI50 (SR leukemia) of 3.33 µM and a TGI (SR leukemia) of 40.6 µM. It also gave a GI50 (KM12 colon) of 4.28 µM, a TGI (KM12 colon) of 18 µM and a GI50 (EKVX NSCLC) of 1.9 µM. For the same molecule, the TGI (EKVX NSCLC) was 10.8 µM, the GI50 (CAKI-1 renal) was 2.71 µM and the TGI (CAKI-1 renal) was 19.1 µM. For the same molecule, the GI50 (HCC-2998 colon) was 4.22 µM, the TGI (HCC-2998 colon) was 16.4 µM and the GI50 (TK-10 renal) was 6.19 µM. For the same molecule, the TGI (TK-10 renal) was 23.8 µM, the GI50 (OVCAR-4 ovarian) was 3.09 µM and the TGI (OVCAR-4 ovarian) was 17.7 µM. The GI50 (NCI-H522 lung) was 5.35 µM, the TGI (NCI-H522 lung) was 20.5 µM and the GI50 (HL-60(TB) leukemia) was 4.27 µM. It also gave a TGI (HL-60(TB) leukemia) of 23.8 µM, a GI50 (UACC-62 melanoma) of 3.58 µM and a TGI (UACC-62 melanoma) of 15.3 µM. For the same molecule, the GI50 (HCT-15 colon) was 1.5 µM, the TGI (HCT-15 colon) was 13.2 µM and the GI50 (ACHN renal) was 3.25 µM. For the same molecule, the TGI (ACHN renal) was 14.4 µM, the GI50 (RXF 393 renal) was 2.19 µM and the TGI (RXF 393 renal) was 11.8 µM. For the same molecule, the GI50 (SK-MEL-5 melanoma) was 1.63 µM, the TGI (SK-MEL-5 melanoma) was 3.66 µM and the GI50 (M14 melanoma) was 4.58 µM. For the same molecule, the TGI (M14 melanoma) was 19.2 µM, the GI50 (NCI-H23 lung) was 2.45 µM and the TGI (NCI-H23 lung) was 13.3 µM. The GI50 (K-562 leukemia) was 2.47 µM, the TGI (K-562 leukemia) was > 100 µM and the GI50 (HCT-116 colon) was 1.88 µM. For the same molecule, the TGI (HCT-116 colon) was 12.8 µM, the GI50 (SNB-75 CNS) was 4.6 µM and the TGI (SNB-75 CNS) was 20.1 µM. The GI50 (NCI/ADR-RES ovarian) was 1.35 µM, the TGI (NCI/ADR-RES ovarian) was 14.3 µM and the GI50 (OVCAR-8 ovarian) was 3.69 µM. For the same molecule, the TGI (OVCAR-8 ovarian) was 19.6 µM, the GI50 (SK-MEL-28 melanoma) was 4.67 µM and the TGI (SK-MEL-28 melanoma) was 17.1 µM. It also gave a GI50 (CCRF-CEM leukemia) of 1.9 µM, a TGI (CCRF-CEM leukemia) of 14.9 µM and a GI50 (UACC-257 melanoma) of 4.63 µM. The TGI (UACC-257 melanoma) was 19 µM, the GI50 (786-0 renal) was 3.81 µM and the TGI (786-0 renal) was 15.7 µM. For the same molecule, the GI50 (U251 CNS) was 2.15 µM, the TGI (U251 CNS) was 13.6 µM and the GI50 (HT29 colon) was 4.79 µM. For the same molecule, the TGI (HT29 colon) was 25 µM, the GI50 (MDA-MB-231 breast) was 5.7 µM and the TGI (MDA-MB-231 breast) was 20 µM. For the same molecule, the GI50 (SW-620 colon) was 3.71 µM, the TGI (SW-620 colon) was 14.2 µM and the GI50 (IGROV1 ovarian) was 2.47 µM. The TGI (IGROV1 ovarian) was 16.8 µM, the GI50 (OVCAR-5 ovarian) was 5.61 µM and the TGI (OVCAR-5 ovarian) was 19.4 µM. For the same molecule, the GI50 (LOX IMVI melanoma) was 2.29 µM, the TGI (LOX IMVI melanoma) was 14.5 µM and the GI50 (SF-539 CNS) was 4.6 µM. For the same molecule, the TGI (SF-539 CNS) was 16.4 µM, the GI50 (OVCAR-3 ovarian) was 3.68 µM and the TGI (OVCAR-3 ovarian) was 18.1 µM. It also gave a GI50 (SF-295 CNS) of 1.07 µM, a TGI (SF-295 CNS) of 10.8 µM and a GI50 (SK-OV-3 ovarian) of 5.58 µM. It also gave a TGI (SK-OV-3 ovarian) of 21.1 µM.

From PubChem BioAssay (NCI)
